# Measured values reported in patent US8269015B2, “4-azetidinyl-1-heteroaryl-cyclohexane antagonists of CCR2” (Janssen Pharmaceutica N.V., priority 2009, dated 2012).
# Counter-ions that a name gives are not always drawn.
# Biological target: T1, CCR2 (Homo sapiens, UniProt P41597)
# T1 construct: host or cells: THP-1 (human monocytic cell line)
# T1 sequence (P41597 1-360 isoform P41597-2): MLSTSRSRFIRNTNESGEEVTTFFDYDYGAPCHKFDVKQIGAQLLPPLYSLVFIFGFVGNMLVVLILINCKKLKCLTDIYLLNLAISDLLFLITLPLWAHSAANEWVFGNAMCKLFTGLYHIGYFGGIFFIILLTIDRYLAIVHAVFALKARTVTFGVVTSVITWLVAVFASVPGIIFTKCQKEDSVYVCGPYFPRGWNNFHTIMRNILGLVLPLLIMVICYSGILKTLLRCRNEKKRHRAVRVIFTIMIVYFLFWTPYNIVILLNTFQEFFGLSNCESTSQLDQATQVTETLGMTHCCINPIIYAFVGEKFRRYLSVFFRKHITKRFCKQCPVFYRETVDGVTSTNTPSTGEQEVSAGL
# Assay: MCP-1 Receptor Binding Assay in THP-1 Cells (125I labeled MCP-1)
# Settings: 0.5 nM 125I labeled MCP-1, 2 hours at 30° C., read-out: Inhibition of MCP-1 Binding IC50, CCR2 Binding
# Method: Compounds of the invention were subjected to various representative biological tests. […] MCP-1 Receptor Binding Assay in THP-1 Cells
# Human monocytic cell line THP-1 cells were obtained from American Type Culture Collection (Manassas, Va., USA). […] The cell density was maintained […].
# 1 μM cold MCP-1 was used for nonspecific binding.
row,Compound,IC50
1,"O=C(CNC(=O)c1cccc(C(F)(F)F)c1)NC1CN(C2CCC(c3ccc(=O)[nH]c3)CC2)C1 (single isomer, unassigned) [Example 37a, N-({1-[4-(6-Oxo-1,6-dihydro-pyridin-3-yl)-cyclohexyl]-azetidin-3-ylcarbamoyl}-methyl)-3-trifluoromethyl-benzamide]",170 nM
2,"Cn1cc(C2CCC(N3CC(NC(=O)CNC(=O)c4cccc(C(F)(F)F)c4)C3)CC2)ccc1=O (single isomer, unassigned) [Example 38a, N-({1-[4-(1-Methyl-6-oxo-1,6-dihydro-pyridin-3-yl)-cyclohexyl]-azetidin-3-ylcarbamoyl}-methyl)-3-trifluoromethyl-benzamide]",46 nM
3,"CC(C)n1cc(C2CCC(N3CC(NC(=O)CNC(=O)c4cccc(C(F)(F)F)c4)C3)CC2)ccc1=O (single isomer, unassigned) [Example 40a, N-({1-[4-(1-Isopropyl-6-oxo-1,6-dihydro-pyridin-3-yl)-cyclohexyl]-azetidin-3-ylcarbamoyl}-methyl)-3-trifluoromethyl-benzamide]",330 nM
4,"O=C(CNC(=O)c1cccc(C(F)(F)F)c1)NC1CN(C2CCC(c3ccc(=O)n(CC(F)(F)F)c3)CC2)C1 (single isomer, unassigned) [Example 42a, N-[(1-{4-[6-Oxo-1-(2,2,2-trifluoro-ethyl)-1,6-dihydro-pyridin-3-yl]-cyclohexyl}-azetidin-3-ylcarbamoyl)-methyl]-3-trifluoromethyl-benzamide]",150 nM
5,"Cc1cc(C2CCC(N3CC(NC(=O)CNC(=O)c4cccc(C(F)(F)F)c4)C3)CC2)c[nH]c1=O (single isomer, unassigned) [Example 44a, N-({1-[4-(5-Methyl-6-oxo-1,6-dihydro-pyridin-3-yl)-cyclohexyl]-azetidin-3-ylcarbamoyl}-methyl)-3-trifluoromethyl-benzamide]",250 nM
6,"Cc1cc(C2CCC(N3CC(NC(=O)CNC(=O)c4cccc(C(F)(F)F)c4)C3)CC2)cn(C)c1=O (single isomer, unassigned) [Example 45a, N-({1-[4-(1,5-Dimethyl-6-oxo-1,6-dihydro-pyridin-3-yl)-cyclohexyl]-azetidin-3-ylcarbamoyl}-methyl)-3-trifluoromethyl-benzamide]",61 nM
7,"Cn1ccc(C2CCC(N3CC(NC(=O)CNC(=O)c4cccc(C(F)(F)F)c4)C3)CC2)cc1=O (single isomer, unassigned) [Example 46a, N-({1-[4-(1-Methyl-2-oxo-1,2-dihydro-pyridin-4-yl)-cyclohexyl]-azetidin-3-ylcarbamoyl}-methyl)-3-trifluoromethyl-benzamide]",550 nM
8,"COC(=O)Nc1ncc(C2CCC(N3CC(NC(=O)CNC(=O)c4cccc(C(F)(F)F)c4)C3)CC2)s1 (single isomer, unassigned) [Example 51a, [5-(4-{3-[2-(3-Trifluoromethyl-benzoylamino)-acetylamino]-azetidin-1-yl}-cyclohexyl)-thiazol-2-yl]-carbamic acid methyl ester]",340 nM
9,"O=C(CNC(=O)c1cccc(C(F)(F)F)c1)NC1CN(C2CCC(c3cnc(C(=O)O)s3)CC2)C1 (single isomer, unassigned) [Example 52a, 5-(4-{3-[2-(3-Trifluoromethyl-benzoylamino)-acetylamino]-azetidin-1-yl}-cyclohexyl)-thiazole-2-carboxylic acid]",2800 nM
10,"COc1ccc(C2(F)CCC(N3CC(NC(=O)CNC(=O)c4cccc(C(F)(F)F)c4)C3)CC2)cn1 (single isomer, unassigned) [Example 64a, N-({1-[4-Fluoro-4-(6-methoxy-pyridin-3-yl)-cyclohexyl]-azetidin-3-ylcarbamoyl}-methyl)-3-trifluoromethyl-benzamide]",110 nM
11,"COc1ncccc1C1CCC(N2CC(NC(=O)CNC(=O)c3cccc(C(F)(F)F)c3)C2)CC1 (stereo not shown) [Example 2, N-({1-[4-(2-Methoxy-pyridin-3-yl)-cyclohexyl]-azetidin-3-ylcarbamoyl}-methyl)-3-trifluoromethyl-benzamide]",210 nM
12,"O=C(CNC(=O)c1cccc(C(F)(F)F)c1)NC1CN(C2CCC(c3ncccc3O)CC2)C1 (stereo not shown) [Example 3, N-({1-[4-(3-Hydroxy-pyridin-2-yl)-cyclohexyl]-azetidin-3-ylcarbamoyl}-methyl)-3-trifluoromethyl-benzamide]",24 nM
13,"O=C(CNC(=O)c1cccc(C(F)(F)F)c1)NC1CN(C2CCC(c3ccc(O)cn3)CC2)C1 (stereo not shown) [Example 4, N-({1-[4-(5-Hydroxy-pyridin-2-yl)-cyclohexyl]-azetidin-3-ylcarbamoyl}-methyl)-3-trifluoromethyl-benzamide hemisuccinate salt]",13 nM
14,"O=C(CNC(=O)c1cccc(C(F)(F)F)c1)NC1CN(C2CCC(c3cncc(O)c3)CC2)C1 (stereo not shown) [Example 5, N-({1-[4-(5-Hydroxy-pyridin-3-yl)-cyclohexyl]-azetidin-3-ylcarbamoyl}-methyl)-3-trifluoromethyl-benzamide]",260 nM
15,"Cc1ccc(O)c(C2CCC(N3CC(NC(=O)CNC(=O)c4cccc(C(F)(F)F)c4)C3)CC2)n1 (stereo not shown) [Example 6, N-({1-[4-(3-Hydroxy-6-methyl-pyridin-2-yl)-cyclohexyl]-azetidin-3-ylcarbamoyl}-methyl)-3-trifluoromethyl-benzamide]",50 nM
16,"COc1cc(C2CCC(N3CC(NC(=O)CNC(=O)c4cccc(C(F)(F)F)c4)C3)CC2)ccn1 (stereo not shown) [Example 7, N-({1-[4-(2-Methoxy-pyridin-4-yl)-cyclohexyl]-azetidin-3-ylcarbamoyl}-methyl)-3-trifluoromethyl-benzamide]",32 nM
17,"COc1cnccc1C1CCC(N2CC(NC(=O)CNC(=O)c3cccc(C(F)(F)F)c3)C2)CC1 (stereo not shown) [Example 8, N-({1-[4-(3-Methoxy-pyridin-4-yl)-cyclohexyl]-azetidin-3-ylcarbamoyl}-methyl)-3-trifluoromethyl-benzamide]",25 nM
18,"O=C(CNC(=O)c1cccc(C(F)(F)F)c1)NC1CN(C2CCC(c3ccncc3O)CC2)C1 (stereo not shown) [Example 9, N-({1-[4-(3-Hydroxy-pyridin-4-yl)-cyclohexyl]-azetidin-3-ylcarbamoyl}-methyl)-3-trifluoromethyl-benzamide]",52 nM
19,"O=C(CNC(=O)c1cccc(C(F)(F)F)c1)NC1CN(C2CCC(c3cccnc3O)CC2)C1 (stereo not shown) [Example 10, N-({1-[4-(2-Hydroxy-pyridin-3-yl)-cyclohexyl]-azetidin-3-ylcarbamoyl}-methyl)-3-trifluoromethyl-benzamide]",970 nM
20,"O=C(CNC(=O)c1cccc(C(F)(F)F)c1)NC1CN(C2CCC(c3cnccc3O)CC2)C1 (stereo not shown) [Example 11, N-({1-[4-(4-Hydroxy-pyridin-3-yl)-cyclohexyl]-azetidin-3-ylcarbamoyl}-methyl)-3-trifluoromethyl-benzamide]",460 nM
21,"O=C(CNC(=O)c1cccc(C(F)(F)F)c1)NC1CN(C2CCC(c3cc(O)ccn3)CC2)C1 (stereo not shown) [Example 12, N-({1-[4-(4-Hydroxy-pyridin-2-yl)-cyclohexyl]-azetidin-3-ylcarbamoyl}-methyl)-3-trifluoromethyl-benzamide]",> 25000 nM
22,"CC(=O)Nc1ccc(C2CCC(N3CC(NC(=O)CNC(=O)c4cccc(C(F)(F)F)c4)C3)CC2)nc1 (stereo not shown) [Example 13, N-({1-[4-(5-Acetylamino-pyridin-2-yl)-cyclohexyl]-azetidin-3-ylcarbamoyl}-methyl)-3-trifluoromethyl-benzamide]",90 nM
23,"CS(=O)(=O)N(c1ccc(C2CCC(N3CC(NC(=O)CNC(=O)c4cccc(C(F)(F)F)c4)C3)CC2)nc1)S(C)(=O)=O (stereo not shown) [Example 14, N-({1-[4-(5-bis-{Methanesulfonyl}-amino-pyridin-2-yl)-cyclohexyl]-azetidin-3-ylcarbamoyl}-methyl)-3-trifluoromethyl-benzamide]",280 nM
24,"CS(=O)(=O)Nc1ccc(C2CCC(N3CC(NC(=O)CNC(=O)c4cccc(C(F)(F)F)c4)C3)CC2)nc1 (stereo not shown) [Example 15, N-({1-[4-(5-Methanesulfonyl-amino-pyridin-2-yl)-cyclohexyl]-azetidin-3-ylcarbamoyl}-methyl)-3-trifluoromethyl-benzamide]",230 nM
25,"O=C(CNC(=O)c1cccc(C(F)(F)F)c1)NC1CN(C2CCC(c3ccc(NC(=O)C(F)(F)F)cn3)CC2)C1 (stereo not shown) [Example 16, N-[(1-{4-[5-(2,2,2-Trifluoro-acetylamino)-pyridin-2-yl]-cyclohexyl}-azetidin-3-ylcarbamoyl)-methyl]-3-trifluoromethyl-benzamide]",95 nM
26,"O=C(CNC(=O)c1cccc(C(F)(F)F)c1)NC1CN(C2CCC(c3ncccc3NC(=O)C(F)(F)F)CC2)C1 (stereo not shown) [Example 17, N-[(1-{4-[3-(2,2,2-Trifluoro-acetylamino)-pyridin-2-yl]-cyclohexyl}-azetidin-3-ylcarbamoyl)-methyl]-3-trifluoromethyl-benzamide]",920 nM
27,"CC(=O)Nc1cccnc1C1CCC(N2CC(NC(=O)CNC(=O)c3cccc(C(F)(F)F)c3)C2)CC1 (stereo not shown) [Example 18, N-({1-[4-(3-Acetylamino-pyridin-2-yl)-cyclohexyl]-azetidin-3-ylcarbamoyl}-methyl)-3-trifluoromethyl-benzamide]",380 nM
28,"CS(=O)(=O)Nc1cccnc1C1CCC(N2CC(NC(=O)CNC(=O)c3cccc(C(F)(F)F)c3)C2)CC1 (stereo not shown) [Example 19, N-({1-[4-(3-Methanesulfonylamino-pyridin-2-yl)-cyclohexyl]-azetidin-3-ylcarbamoyl}-methyl)-3-trifluoromethyl-benzamide]",1900 nM
